No end group written: not given here.
Tested on: intracellular calcium levels in human spermatozoa
Assay: Intracellular calcium measurement of human spermatozoa (Fluo-3-AM)
Assay type: cell-based
Settings: intact sperm, Fluo-3-AM 2 µM; 4 µM ED-TMR 30 min before 15 µM progesterone; three experiments
Description: Calcium levels were measured in sperm suspensions using the intracellular fluorescent probe Fluo-3-AM. Motile sperm were adjusted to a concentration of 5–10 ×10^6 cells/ml and loaded with the permeable form of the dye (Fluo-3-AM, 2 µM) for 30 min at 37°C. Cells were washed once and resuspended in HTF. Sperm suspensions were transferred to thermostated (37°C) cuvettes for fluorescence measurements and stirred constantly. At the indicated times, 15 µM progesterone was added to the samples. When indicated, sperm where incubated 30 min in presence of 4 µM of the permeable tetramethylrhodamine-labeled MARCKS ED (ED-TMR) before adding progesterone. Fluo-3 fluorescence (λEx = 505 nm, λEm = 525 nm emission) was recorded in an AMINCO-Bowman Series 2 (AB2) spectrofluorometer. […] To calibrate the maximal response, intracellular calcium concentration ([Ca^2+]i) was determined using Triton X-100 (0.1%). […]
Figure 5 Assessing MARCKS function on acrosomal exocytosis in non-permeabilized sperm. […] The increase in fluorescence is expressed as (F/F0)-1 ((maximum fluorescence intensity/initial fluorescence)-1) versus time in seconds. […] (D) Quantification of three independent experiments. […] Phosphorylated MARCKS was detected by Western blot assay using an anti-phospho-MARCKS antibody. […] Phosphorylated MARCKS was detected by Western blot assay using an anti-phospho-MARCKS antibody. […]

Sequence: KKRFSFKKSFKL (also: tetramethylrhodamine conjugate, site not given here) [ED-TMR, commercial (Anaspec) tetramethylrhodamine-conjugated peptide … from residues 154–165 of human MARCKS ED]
- effect on the increase in calcium levels caused by progesterone: significantly diminished
